Assay results taken from patent US9682114B2, “Plant extracts of Ptaeroxylon obliquum nand compounds having antimicrobial and antihelminthic activity” (UNIVERSITY OF PRETORIA, priority 2013, dated 2017).
≈ marks a conversion by molar mass, not a printed value. Read-outs that look alike come from different tables or passages of the source.

Columns and labels:
Mycobacterium aurum = assay: Serial microplate dilution MIC, mycobacteria; type: cell-based; details: Mycolicibacterium aurum
[1] = system: Candida albicans standard strain (ATCC 10231) and clinical isolates; assay: Broth micro-dilution assay, minimal inhibitory concentration (MIC); type: cell-based; details: for MIC: Candida albicans, read-out: MIC; for Selectivity index (SI): LC50 against mouse fibroblast cells/MIC
[2] = system: Haemonchus contortus (larva); assay: Larval development test (LDT); type: cell-based
Description: (§1) The extract and isolated compound were tested for activity on Haemonchus contortus.

mouse fibroblast cells = details: 5 days
Description: (§5) The MTT assay was used to determine the cytotoxicity of dried acetone extracts of H. caffrum (leaves); P. obliquum (leaves); R. melanophloeos (leaves) and S. birrea (stem bark) reconstituted in dimethyl sulphoxide (DMSO) against Mouse fibroblast cells (obtained from the Department of Plant Science, Faculty of Natural and Agricultural Sciences, University of Pretoria, South Africa).
(§6) MTT (yellow) is reduced into a formazan (purple) by viable cells. The colour intensity of the formazan produced, which is directly proportional to the number of viable cells, is measured using a spectrophotometer (Mosmann, 1983; Shai, 2007).
(§7) Cells were maintained in minimal essential medium (MEM) (Highveld Biological, South Africa) supplemented with 0.1% gentamicin (Virbac) and 5% foetal calf serum (Adcock-lngram). […] Dried crude plant extracts (100 mg) were reconstituted in 1 ml of DMSO and serial 10-fold dilutions of each extract were prepared in growth medium. The growth medium on sub-confluent monolayer cells grown overnight in microtitre plates was removed and cells were exposed to 200 μl of the extracts at different concentrations and incubated again at 37° C. for 5 days. Viability of cells was determined using the tetrazolium-based colorimetric assay (MTT assay) described by Mossmann (1983). Before the addition of MTT, the extract-containing medium on the cells was replaced with fresh culture medium to exclude reduction of the tetrazolium compound by plant extracts. The assay is based on mitochondrial dehydrogenase activity which is assessed by the reductive cleavage of the tetrazolium salt MTT [3-(4.5-dimethylthiazolyl)2.5-diphenyltetrazolium bromide] due to the succinic dehydrogenase present in living cells to yield a purple formazan dye. The cells were incubated with 30 μl of 5 mg/ml MTT in phosphate-buffered saline (PBS) for four hours. Thereafter, medium was removed and cells washed with PBS. DMSO (50 μl) was added to the cells and absorbance was measured using a Versamax microplate reader at 570 nm. Berberine chloride (Sigma) was used as a positive control, wells containing only cells acted as the negative control and a solvent control was also included. The percentage cell viability following the addition of varying concentrations of the extracts in relation to controls was calculated. The LC50 values were calculated (using SoftMax Pro4.8 Software) as the concentration of plant extracts resulting in 50 percent reduction of absorbance compared to untreated cells. Tests were carried out in quadruplicate and each experiment was repeated three times.

Mycobacterium fortuitum = assay: Serial microplate dilution MIC, mycobacteria; type: cell-based
[3] = system: Candida albicans ATCC 10231; assay: Microplate dilution MIC, opportunistic fungi (Example 9); type: cell-based; details: ATCC10231
Excerpt: (§2) The microplate dilution method (Eloff, 1998), with slight modification (Masoko et al., 2005) was used to test the antifungal activity of the crude extracts, fractions and isolated compounds from P. obliquum. Clinical isolates of the four opportunistic fungal strains Aspergillus fumigatus, Candida albicans, Crytococcus neoformans and Candida albicans ATCC 10231 were used to test for antifungal activity.

[4] = system: Candida albicans (clinical isolate); assay: as above; type: cell-based
Excerpt: as §2

Aspergillus fumigatus = assay: as above; type: cell-based
Excerpt: as §2

Cryptococcus neoformans = assay: as above; type: cell-based
Excerpt: as §2

Fusarium oxysporum = assay: MIC, plant pathogenic fungi; type: cell-based
Description: as §2
(§3) The antifungal activity of the crude extracts and the five fractions were also tested against 10 plant pathogenic fungi (Aspergillus niger, Aspergillus parasiticus, Colletotrichum gloeosporioides, Fusarium oxysporum, Penicillium digitum, Penicillium expansum, Penicillium italicum, Penicillium janthinellum, Trichoderma harzianum and Rhizoctonia solani).

Aspergillus parasiticus = assay: MIC, plant pathogenic fungi; type: cell-based
Description: as §2, §3

Penicillium expansum = assay: MIC, plant pathogenic fungi; type: cell-based
Description: as §2, §3

Trichoderma harzianum = assay: MIC, plant pathogenic fungi; type: cell-based
Description: as §2, §3

Rhizoctonia solani = assay: MIC, plant pathogenic fungi; type: cell-based
Description: as §2, §3

Aspergillus niger = assay: MIC, plant pathogenic fungi; type: cell-based
Description: as §2, §3

Penicillium italicum = assay: MIC, plant pathogenic fungi; type: cell-based
Description: as §2, §3

Penicillium janthinellum = assay: MIC, plant pathogenic fungi; type: cell-based
Description: as §2, §3

[5] = system: Colletotrichum gloeosporioides; assay: MIC, plant pathogenic fungi; type: cell-based
Description: as §2, §3

Penicillium digitum = assay: MIC, plant pathogenic fungi; type: cell-based
Description: as §2, §3

[6] = system: Escherichia coli ATTC 6739; assay: Serial microplate dilution MIC, bacteria; type: cell-based; details: ATTC6739
Description: (§4) The serial microplate dilution method developed by Eloff (1998) was used to determine the minimal inhibitory concentration (MIC) of the crude extracts, fractions and isolated compounds from P. obliquum against several bacterial strains. The antimicrobial activity was determined against the bacterial strains Escherichia coli ATTC 27853, Escherichia coli ATTC 6739, Enterococcus faecalis ATCC 29212, Pseudomonas aeruginosa ATCC 25922, Staphylococcus aureus ATCC 6538, Staphylococcus aureus ATCC 29213, Salmonella typhi ATCC 14028.

[7] = system: Escherichia coli ATTC 27853; assay: Serial microplate dilution MIC, bacteria; type: cell-based; details: ATTC27853
Description: as §4

[8] = system: Staphylococcus aureus ATCC 6538; assay: Serial microplate dilution MIC, bacteria; type: cell-based; details: ATCC6538
Description: as §4

[9] = system: Pseudomonas aeruginosa ATCC 25922; assay: Serial microplate dilution MIC, bacteria; type: cell-based; details: ATCC25922
Description: as §4

[10] = system: Salmonella typhi ATCC 14028; assay: Serial microplate dilution MIC, bacteria; type: cell-based; details: Salmonella enterica
Description: as §4

[11] = system: Enterococcus faecalis ATCC 29212; assay: Serial microplate dilution MIC, bacteria; type: cell-based; details: ATCC29212
Description: as §4

[12] = system: Staphylococcus aureus ATCC 29213; assay: Serial microplate dilution MIC, bacteria; type: cell-based; details: ATCC29213
Description: as §4

[13] = system: bacterial strains (E. coli, E. faecalis, P. aeruginosa, S. aureus, S. typhi); assay: Antibacterial MIC, summary statements over all bacterial strains tested; type: cell-based; details: read-out: MIC (bacteria tested, summary)
Description: as §4

in vitro [14] = details: mouse, LC50 (cytotoxicity)
Description: as §5, §6, §7

Mycobacterium smegmatis = assay: Serial microplate dilution MIC, mycobacteria; type: cell-based
in vitro [15] = assay: in vitro
Mycobacterium bovis = assay: microbe, parasite or virus in culture; type: cell-based
[16] = system: Haemonchus contortus (egg); assay: Egg hatch assay (EHA); type: cell-based; details: egg of Haemonchus contortus; read-out: Antihelminthic activity EC50 (mg/ml) EDA
Description: as §1

in vitro [17] = details: human

With `CC(=O)OCC1=CCc2c(cc(O)c3c(=O)cc(C)oc23)OC1` [Compound 2, 8,11-Dihydro-5-hydroxy-12-hydroxymethyl-2-methyl-4H-pyrano[2,3-g][1]benzoxepin-4-one 12-O-acetate] the MIC (Mycobacterium aurum) was 125 µg/mL (≈ 395 µM), the MIC ([1]; 12 h, 12 h incubation, C. albicans 1051255) was greater than 250 µg/mL and the MIC ([1]; 12 h, 12 h incubation, C. albicans 1051604) was greater than 250 µg/mL. For the same molecule, the MIC ([1]; 12 h, 12 h incubation, C. albicans 1051608) was 8 µg/mL (≈ 25.3 µM), the MIC ([1]; 12 h, 12 h incubation, C. albicans ATCC 10231) was 4 µg/mL (≈ 12.6 µM) and the MIC ([1]; 12 h, 12 h incubation, C. albicans M0824) was greater than 250 µg/mL. It also gave an MIC ([1]; 12 h, 12 h incubation, C. albicans M0825) greater than 250 µg/mL, an MIC ([1]; 12 h, 12 h incubation, C. albicans M0826) greater than 250 µg/mL and an MIC ([1]; 24 h, 24 h incubation, C. albicans 1051255) greater than 250 µg/mL. For the same molecule, the MIC ([1]; 24 h, 24 h incubation, C. albicans 1051604) was greater than 250 µg/mL, the MIC ([1]; 24 h, 24 h incubation, C. albicans 1051608) was 250 µg/mL (≈ 790 µM) and the MIC ([1]; 24 h, 24 h incubation, C. albicans ATCC 10231) was 4 µg/mL (≈ 12.6 µM). It also gave an MIC ([1]; 24 h, 24 h incubation, C. albicans M0824) greater than 250 µg/mL, an MIC ([1]; 24 h, 24 h incubation, C. albicans M0825) greater than 250 µg/mL and an MIC ([1]; 24 h, 24 h incubation, C. albicans M0826) greater than 250 µg/mL. The MIC ([1]; C. albicans ATCC 10231, mean value) was 4 µg/mL (≈ 12.6 µM), the “Selectivity index (SI)” value ([1]; C. albicans 1051255) was less than 0.029 and the “Selectivity index (SI)” value ([1]; C. albicans 1051604) was less than 0.029. The “Selectivity index (SI)” value ([1]; C. albicans 1051608) was 0.029, the “Selectivity index (SI)” value ([1]; C. albicans ATCC 10231) was 1.808 and the “Selectivity index (SI)” value ([1]; C. albicans M0824) was less than 0.029. For the same molecule, the “Selectivity index (SI)” value ([1]; C. albicans M0825) was less than 0.029, the “Selectivity index (SI)” value ([1]; C. albicans M0826) was less than 0.029 and the “Selectivity index (SI) Average” value ([1]; average over ATCC 10231 and clinical isolates) was 0.283. For the same molecule, the EC50 ([2]; Haemonchus contortus larvae, read-out: EC50 against larvae) was 0.0956 mg/mL (≈ 302 µM), the EC50 ([2]; larva of Haemonchus contortus, read-out: Antihelminthic activity EC50 (mg/ml) LDT) was 0.0956 ± 0.002 mg/mL (≈ 302 µM) and the “LC50 (cytotoxicity)” value (mouse fibroblast cells) was 7.23 µg/mL (≈ 22.9 µM). The MIC (Mycobacterium fortuitum; Mycobacterium fortuitum) was 8 µg/mL (≈ 25.3 µM), the MIC (Mycobacterium fortuitum; Mycolicibacterium fortuitum, M. fortuitum, read-out: MIC) was 8 µg/mL (≈ 25.3 µM) and the MIC [3] was 2 µg/mL (≈ 6.32 µM). It also gave an MIC [4] of 62.5 µg/mL (≈ 198 µM), an MIC (Aspergillus fumigatus) of 16 µg/mL (≈ 50.6 µM) and an MIC (Cryptococcus neoformans) of 8 µg/mL (≈ 25.3 µM). The MIC (Fusarium oxysporum) was 63 µg/mL (≈ 199 µM), the MIC (Aspergillus parasiticus) was 250 µg/mL (≈ 790 µM) and the MIC (Penicillium expansum) was 32 µg/mL (≈ 101 µM). The MIC (Trichoderma harzianum) was 16 µg/mL (≈ 50.6 µM), the MIC (Trichoderma harzianum; T. harzianum, read-out: MIC) was 16 µg/mL (≈ 50.6 µM) and the MIC (Rhizoctonia solani) was 8 µg/mL (≈ 25.3 µM). For the same molecule, the MIC (Rhizoctonia solani; R. solani, read-out: MIC) was 8 µg/mL (≈ 25.3 µM), the MIC (Aspergillus niger) was 32 µg/mL (≈ 101 µM) and the MIC (Penicillium italicum) was 125 µg/mL (≈ 395 µM). The MIC (Penicillium janthinellum) was 63 µg/mL (≈ 199 µM), the MIC [5] was 32 µg/mL (≈ 101 µM) and the MIC (Penicillium digitum) was 32 µg/mL (≈ 101 µM). It also gave an MIC [6] of 80 µg/mL (≈ 253 µM), an MIC [7] of 80 µg/mL (≈ 253 µM) and an MIC [8] of 31.5 µg/mL (≈ 99.6 µM). For the same molecule, the MIC [9] was 31.5 µg/mL (≈ 99.6 µM), the MIC [10] was 31.5 µg/mL (≈ 99.6 µM) and the MIC [11] was greater than 250 µg/mL. The MIC [12] was 31.5 µg/mL (≈ 99.6 µM), the MIC [13] was 31.5 µg/mL (≈ 99.6 µM) and the CC50 at 5 days (in vitro [14]) was 7.23 µg/mL (≈ 22.9 µM). The MIC (Mycobacterium smegmatis; Mycobacterium smegmatis) was 16 µg/mL (≈ 50.6 µM), the MIC (Mycobacterium smegmatis; Mycolicibacterium smegmatis, M. smegmatis, read-out: MIC) was 16 µg/mL (≈ 50.6 µM) and the CC50 (in vitro [15]; monkey and human) was greater than 200 µg/mL. The MIC (Mycobacterium bovis; Mycobacterium bovis) was 31.5 µg/mL (≈ 99.6 µM), the MIC (Mycobacterium bovis; Mycobacterium tuberculosis variant bovis) was 31.5 µg/mL (≈ 99.6 µM) and the EC50 [16] was 0.224 ± 0.0286 mg/mL (≈ 707 µM).

In the case of `COc1cccc2c1C(=O)c1c(O)c3c(c(O)c1C2=O)C[C@@](O)(C(=O)CO)C[C@@H]3O[C@H]1C[C@H](N)[C@H](O)[C@H](C)O1` [doxorubicin, reference compound], the CC50 (in vitro [15]; monkey) is reported as 2.51 ± 0.203 µM and the CC50 (in vitro [17]) is reported as 0.116 ± 0.0174 µM.
